This assay has as its target T1, rat NaP2b (SLC34A2) (Rattus norvegicus, UniProt Q9JJ09).
T1 construct: host or cells: HEK293
T1 sequence (Q9JJ09 1-695): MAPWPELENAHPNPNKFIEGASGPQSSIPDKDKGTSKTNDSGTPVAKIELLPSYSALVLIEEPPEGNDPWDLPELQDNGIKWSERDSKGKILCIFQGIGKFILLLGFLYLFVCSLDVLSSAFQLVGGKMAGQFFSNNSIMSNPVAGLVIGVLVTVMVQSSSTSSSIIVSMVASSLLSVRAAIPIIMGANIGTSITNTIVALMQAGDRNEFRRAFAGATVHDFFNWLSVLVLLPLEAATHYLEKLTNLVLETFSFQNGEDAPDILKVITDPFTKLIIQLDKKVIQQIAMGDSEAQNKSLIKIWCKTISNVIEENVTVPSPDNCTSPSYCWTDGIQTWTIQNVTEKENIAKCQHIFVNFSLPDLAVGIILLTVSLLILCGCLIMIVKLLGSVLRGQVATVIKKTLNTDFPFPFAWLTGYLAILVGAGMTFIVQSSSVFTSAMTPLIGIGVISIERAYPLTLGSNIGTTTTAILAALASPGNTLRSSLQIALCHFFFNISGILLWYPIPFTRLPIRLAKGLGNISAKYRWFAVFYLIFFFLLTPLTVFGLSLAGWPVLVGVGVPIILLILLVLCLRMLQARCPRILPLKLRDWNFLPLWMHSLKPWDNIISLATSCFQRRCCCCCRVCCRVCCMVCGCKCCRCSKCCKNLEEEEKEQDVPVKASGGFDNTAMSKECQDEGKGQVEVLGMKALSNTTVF
Kind of assay: NaP2b-mediated Pi transport: 33P phosphate uptake into transfected HEK293 cells. The class given is cell-based. Conditions: 100 uM KH2PO4, PiT-silencing agent, read-out: pIC50 range for rat Nap2b (converted). The method, then:
Materials. HEK293 cells were obtained from the American Type Culture collection and propagated per their instructions. Expression clones for rat and human NaP2b (SLC34A2) were obtained from Open Biosystems (Catalog numbers MRN1768-9510282, and MHS1010-99823026, respectively). The sequence of the human protein was mutated to insert a threonine after residue 37, and to introduce a N39D mutation.
Inhibition of Pi Transport. The rate of phosphate (Pi) uptake into HEK293 cells was measured using a modification of the method described by Mohrmann et al. (Mohrmann, I., Mohrmann, M., Biber, J., and Murer, H. (1986) Am. J. Phys. 250(3 Pt 1):G323-30.) Transfected HEK293 cells were treated with a pharmacological agent to minimize endogenous PiT-mediated phosphate transport activity, such that the only remaining sodium-dependent phosphate transport activity is that which was bestowed by introduction of the NaP2b genes.
Cells were seeded into 96-well plates at 25,000 cells/well and cultured overnight. Lipofectamine 2000 (Invitrogen) was used to introduce the NaP2b cDNA, and the cells were allowed to approach confluence during a second overnight incubation. […] Cells were then overlayed with either choline uptake buffer or sodium uptake buffer (14 mM Tris, 137 mM sodium chloride, 5.4 mM KCl, 2.8 mM CaCl2, 1.2 mM MgSO4, 100 uM KH2PO4, PiT-silencing agent, 1 mg/mL Bovine Serum Albumin, pH 7.4) containing 6-9 uCi/mL ^33P orthophosphoric acid (Perkin Elmer) and test compound. Each compound was tested at twelve concentrations ranging from 0.1 nM to 30 uM. Assays were run in duplicate.
After incubation for 3-30 minutes at room temperature, assay mixtures were removed, and the cells were washed twice with ice cold stop solution (137 mM sodium chloride, 14 mM Tris, pH 7.4). Cells were lysed by addition of 20 μL 0.1% Tween 80 followed by 100 μL scintillation fluid, and counted using a TopCount (Perkin Elmer).
pIC50 (the negative log of the IC50) values of the test compounds were calculated using GraphPad Prism.

Turning to `CCN(CC)CCN(C)Cc1ccc(C(=O)Nc2ccc(N3CCCCC3)cc2C(=O)Nc2ccn(-c3cccc(C(F)(F)F)c3)n2)cc1` [Example 9, 2-(4-(((2-(diethylamino)ethyl)(methyl)amino)methyl)benzamido)-5-(piperidin-1-yl)-N-(1-(3-(trifluoromethyl)phenyl)-1H-pyrazol-3-yl)benzamide], the IC50 is 10 to 31.6 µM.

As for `O=C(NCCOCCO)c1cccc(C(=O)Nc2ccc(N3CCCCC3)cc2C(=O)Nc2ccn(-c3cccc(C(F)(F)F)c3)n2)c1` [Example 13, N1-(2-(2-Hydroxyethoxyl)ethyl)-N3-(4-(piperidin-1-yl)-2-((1-(3-(trifluoromethyl)phenyl)-1H-pyrazol-3-yl)carbamoyl)phenyl)isophthalamide], the IC50 was 1 to 7.94 µM.

Consider `CN(CCOCCOCCOCCC(=O)O)Cc1cccc(C(=O)Nc2ccc(N3CCCCC3)cc2C(=O)Nc2ccn(-c3cccc(C(F)(F)F)c3)n2)n1` [Example 8, 2-methyl-1-(6-((4-(piperidin-1-yl)-2-((1-(3-(trifluoromethyl)phenyl)-1H-pyrazol-3-yl)carbamoyl)phenyl)carbamoyl)pyridin-2-yl)-5,8,11-trioxa-2-azatetradecan-14-oic acid], for which the IC50 was 1 to 7.94 µM.

Consider `O=C(NCCOCCO)c1cccc(C(=O)Nc2ccc(N3CCCCC3)cc2C(=O)Nc2cn(-c3cccc(C(F)(F)F)c3)cn2)c1` [Example 10, N1-(2-(2-Hydroxyethoxyl)ethyl)-N3-(4-(piperidin-1-yl)-2-((1-(3-(trifluoromethyl)phenyl)-1H-imidazol-4-yl)carbamoyl)phenyl)isophthalamide], for which the IC50 was 1 to 7.94 µM.

Regarding `CCN(CC)CCN(C)Cc1cccc(C(=O)Nc2ccc(N3CCCCC3)cc2C(=O)Nc2ccn(-c3cccc(C(F)(F)F)c3)n2)c1` [Example 12, 2-(3-(((2-(Diethylamino)ethyl)(methyl)amino)methyl)benzamido)-5-(piperidin-1-yl)-N-(1-(3-(trifluoromethyl)phenyl)-1H-pyrazol-3-yl)benzamide], the IC50 is 10 to 31.6 µM.

Take `CN(CCN1CCOCC1)C(=O)c1cccc(C(=O)Nc2ccc(N3CCCCC3)cc2C(=O)Nc2nc(-c3cccc(C(F)(F)F)c3)cs2)c1` [Example 3, N1-Methyl-N1-(2-morpholinoethyl)-N3-(4-(piperidin-1-yl)-2-((4-(3-(trifluoromethyl)phenyl)thiazol-2-yl)carbamoyl)phenyl)isophthalamide]: the IC50 is less than 1 µM.

For the compound `COCCNC(=O)CCN(C)Cc1cccc(C(=O)Nc2ccc(N3CCCCC3)cc2C(=O)Nc2ccn(-c3cccc(C(F)(F)F)c3)n2)c1` [Example 16, 2-(3-(((3-((2-methoxyethyl)amino)-3-oxopropyl)(methyl)amino)methyl)-benzamido)-5-(piperidin-1-yl)-N-(1-(3-(trifluoromethyl)phenyl)-1H-pyrazol-3-yl)-benzamide], the IC50 is 1 to 7.94 µM.

With `O=C(O)Cc1cccc(SCc2cccc(C(=O)Nc3ccc(Cl)cc3C(=O)Nc3ccn(-c4cccc(C(F)(F)F)c4)n3)c2)c1` [Example 24, 2-(3-((3-((4-chloro-2-((1-(3-(trifluoromethyl)phenyl)-1H-pyrazol-3-yl)-carbamoyl)phenyl)carbamoyl)benzyl)thio)phenyl)acetic acid], the IC50 was less than 1 µM.

On to `Cc1ccc(-n2ccc(NC(=O)c3cc(Cl)ccc3NC(=O)c3cccc(CSCCC(=O)O)c3)n2)cc1C` [Example 4, 3-((3-((4-Chloro-2-((1-(3,4-dimethylphenyl)-1H-pyrazol-3-yl)carbamoyl)phenyl)carbamoyl)benzyl)thio)propanoic acid], for which the IC50 is 1 to 7.94 µM.

With `Cc1ccc(-n2ccc(NC(=O)c3cc(N4CCCCC4)ccc3NC(=O)c3cccc(CSCCC(=O)O)c3)n2)cc1C` [Example 5, 3-((3-((2-((1-(3,4-Dimethylphenyl)-1H-pyrazol-3-yl)carbamoyl)-4-(piperidin-1-yl)phenyl)carbamoyl)benzyl)thio)propanoic acid], the IC50 is 1 to 7.94 µM.

For the origin of these results see patent US9289430B2, “Compounds and methods for inhibiting phosphate transport” (Ardelyx, Inc., priority 2010, dated 2016).
